Values belong to the molecule of their own block, whether it stands above or below them.
Assays:
[1] = tested on: COX-2-positive BxPC3 cells; assay: Cell uptake of [18F]FMTP in COX-2-positive BxPC3 cells, with blocking; type: cell-based, human
[2] = tested on: COX-2; conditions: cited from earlier work
[3] = tested on: COX-2; conditions: baboon brain; cited from earlier work
[4] = target: T1, COX-2 (Homo sapiens, UniProt P35354); conditions: cited from earlier work
T1 sequence (P35354 18-604): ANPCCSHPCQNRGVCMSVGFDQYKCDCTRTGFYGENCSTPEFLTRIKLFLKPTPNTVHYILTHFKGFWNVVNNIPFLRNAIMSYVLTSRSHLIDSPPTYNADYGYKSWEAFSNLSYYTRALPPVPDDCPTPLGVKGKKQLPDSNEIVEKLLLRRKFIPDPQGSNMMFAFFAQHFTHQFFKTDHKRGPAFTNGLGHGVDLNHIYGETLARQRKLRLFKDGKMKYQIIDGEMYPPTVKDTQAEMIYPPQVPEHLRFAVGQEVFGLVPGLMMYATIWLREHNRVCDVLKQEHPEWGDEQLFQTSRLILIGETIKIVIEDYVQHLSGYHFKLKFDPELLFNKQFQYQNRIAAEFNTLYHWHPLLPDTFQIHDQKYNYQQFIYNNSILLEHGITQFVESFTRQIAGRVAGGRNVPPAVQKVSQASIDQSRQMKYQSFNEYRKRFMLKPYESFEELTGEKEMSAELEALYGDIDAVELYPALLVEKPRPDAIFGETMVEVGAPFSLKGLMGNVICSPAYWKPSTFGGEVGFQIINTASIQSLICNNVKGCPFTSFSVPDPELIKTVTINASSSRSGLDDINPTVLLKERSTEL

[5] = tested on: COX-2-negative PANC-1 cells; assay: Cell uptake of [18F]FMTP in COX-2-negative PANC-1 cells, with blocking; type: cell-based, human
Experimental: (§1) The radiochemical synthesis of [^18F]FMTP and [^18F]FMPP were optimized using a chlorine-to-fluorine displacement method, by reacting ^18F-fluoride/K222/K2CO3 with the corresponding chlorine precursor molecules. […] Dynamic microPET image acquisition was performed in anesthetized nude mice, LPS-induced neuroinflammation mice, and PBS-administered control mice using […].
BxPC3 and PANC-1 human pancreas carcinoma cell lines were plated on a 24-well plate at 2×10^5 cells/well. After 48 hours, [^18F]FMTP was added (2.0 μCi/mL) to the cell medium for 30 minutes. […] After incubation with [^18F]FMTP, cells were washed 4 times with cold PBS, lysed with 0.1 N NaOH, and counted in a gamma counter (Hidex AMG, LabLogic, Tampa, Fla.).
Proof-of-concept and selectivity of [^18F]FMTP binding to COX-2 was examined by evaluating the tracer uptake in COX-2-positive BxPC3 and a control COX-2-negative PANC1 human pancreatic carcinoma cell lines. FIG. 2 illustrates a >2-fold uptake of [^18F]FMTP in BxPC3 cells compared with PANC1 cells. Values shown in FIG. 2 are the mean±standard deviation (“SD”) from four independent experiments.

[6] = target: T2, COX-2 (Mus musculus, UniProt Q05769); assay: MicroPET imaging of [18F]FMTP in LPS-induced neuroinflammation mice vs PBS-treated mice; type: in vivo; conditions: 24 hours after intracranial 5 μg LPS (FIG. 5)
T2 construct: from tissue; host or cells: brain of living male white mice, LPS- or PBS-injected
T2 sequence (Q05769 18-604): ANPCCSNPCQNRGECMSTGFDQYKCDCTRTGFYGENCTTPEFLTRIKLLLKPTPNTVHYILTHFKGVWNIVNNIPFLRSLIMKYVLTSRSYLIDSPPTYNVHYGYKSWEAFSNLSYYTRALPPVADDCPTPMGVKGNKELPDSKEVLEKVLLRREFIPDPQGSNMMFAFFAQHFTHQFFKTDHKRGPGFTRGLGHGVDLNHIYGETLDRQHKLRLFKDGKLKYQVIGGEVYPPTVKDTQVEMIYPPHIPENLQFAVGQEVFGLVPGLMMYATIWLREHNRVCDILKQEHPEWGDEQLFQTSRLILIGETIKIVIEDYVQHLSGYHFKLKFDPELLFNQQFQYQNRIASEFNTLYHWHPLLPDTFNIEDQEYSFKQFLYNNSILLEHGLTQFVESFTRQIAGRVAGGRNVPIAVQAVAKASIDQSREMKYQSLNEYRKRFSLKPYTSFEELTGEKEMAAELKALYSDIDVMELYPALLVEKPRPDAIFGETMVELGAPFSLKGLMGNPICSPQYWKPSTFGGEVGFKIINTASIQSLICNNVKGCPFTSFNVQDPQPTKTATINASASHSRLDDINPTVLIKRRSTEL
Experimental: as §1
Animals (male white mice) were anesthetized with isoflurane (l %-2% isoflurane in 100% oxygen) using a nose cone, and a 29-gauge needle connected to a catheter was placed into the lateral tail vein. For neuroinflammation, mice were stereotactically injected with 5 μg of LPS or PBS (controls) in the brain and imaging experiments conducted 24 hours later. […] The standardized uptake values (“SUVs”) were estimated using a calibration factor calculated from the phantom study and time activity curves (“TACs”) were derived from VOIs in the series of reconstructed images.
FIGS. 3A-3D show the summed early frames (0-10 minute) and total frames (0-40 minute) of microPET images. […] TACs also indicated an initial rapid influx of radioactivity followed by rapid washout (FIG. 4). […] Highest radioactivity outside the heart was found in liver, and the delay to peak at 5-10 minutes was probably due to the accumulation of radioactive metabolite(s). […]

[7] = Dynamic microPET imaging of [18F]FMTP in normal mice; type: in vivo
Experimental: as §1
Animals (male white mice) were anesthetized with isoflurane (l %-2% isoflurane in 100% oxygen) using a nose cone, and a 29-gauge needle connected to a catheter was placed into the lateral tail vein. For neuroinflammation, mice were stereotactically injected with 5 μg of LPS or PBS (controls) in the brain and imaging experiments conducted 24 hours later. The animal was placed in prone position on the platform of the scanner and moved into the center of the field of view guided by laser beam calibration. Immediately after scan start, [^18F]FMTP (˜2.5 MBq […] in 20% ethanol-saline solution) was injected through the tail-vein catheter manually. The error caused by the injector and catheter was corrected by subtracting the remaining dose. 40-minute dynamic imaging was acquired on a microPET scanner (Siemens Inveon). The acquired list-mode data were reconstructed with 3D ordered subset expectation maximization (OSEM) algorithm using the software of Siemens Inveon Acquisition Workplace with a framing protocol of 2×30 seconds, 4×60 seconds, 3×120 seconds, 3×180 seconds, and 4×300 seconds. Using PMOD software (version 4.0, Switzerland), three-dimensional ellipsoid volume of interests (“VOIs”) ranging from 2-to-6 mm were placed manually at the center of the brain, heart (blood-pool), liver, proximal humerus (bone), and posterior cervical muscle. The standardized uptake values (“SUVs”) were estimated using a calibration factor calculated from the phantom study and time activity curves (“TACs”) were derived from VOIs in the series of reconstructed images.
FIGS. 3A-3D show the summed early frames (0-10 minute) and total frames (0-40 minute) of microPET images. Crosses in FIGS. 3A-3D represent the region with brain. […] TACs also indicated an initial rapid influx of radioactivity followed by rapid washout (FIG. 4). The uptake of [^18F]FMTP peaked around 1 minute in heart and brain, and then decreased rapidly. The absence of retention of [^18F]FMTP activity in these organs was predicted due to low COX-2 expression in normal mouse brain. Highest radioactivity outside the heart was found in liver, and the delay to peak at 5-10 minutes was probably due to the accumulation of radioactive metabolite(s). […] The binding of [^18F]FMTP in LPS-induced neuroinflammation in mice was studied in comparison to vehicle (PBS)-treated-mice. Intracranial injection of LPS in mice is known to generate COX-2 induction and neuroinflammation after around 24 hours. Therefore, PET imaging of LPS treated mice was performed after 24 hours with [^18F]FMTP, and an approximately 2-fold increase of tracer binding was found in brain compared with PBS-treated mice (FIG. 5). […] MicroPET data correlated with autoradiography performed in brain sections of microPET imaged animals using [^18F]FMTP.

[8] = tested on: xenografts; conditions: cited from earlier work

SMILES: CS(=O)(=O)c1ccc(-c2nc(F)cc(NCc3nccs3)n2)cc1 [FMTP]
blocking of [18F]FMTP binding in BxPC3 cells ([1]; blocker 5 μM added 30 minutes before [18F]FMTP): substantially blocked

SMILES: COc1cc(NCc2cccs2)nc(-c2ccc(S(C)(=O)=O)cc2)n1 [MC1]
specific binding in CNS and periphery organs ([2]; cold (non-radiolabeled) MC1): no specific binding

SMILES: CS(=O)(=O)c1ccc(-c2nc(NCc3cccs3)cc(O[11CH3])n2)cc1 [[^11C]MC1, [^11C]-6-methoxy-2-(4-(methylsulfonyl)phenyl)-N-(thiophen-2-ylmethyl)pyrimidin-4-amine]
binding to COX-2 in neuroinflammation ([2]; animal models of neuroinflammation): increased binding to COX-2 | detection of constitutive or low level COX-2 in brain ([2]; conditions without inflammation): failed to detect

SMILES: CS(=O)(=O)c1ccc(-c2noc(C(F)(F)F)c2-c2ccccc2)cc1 [[^11C]TMI, [^11C]-3-(4-methylsulfonylphenyl)-4-phenyl-5-trifluoromethyl isoxazole]
blocking of constitutive COX-2 level in brain [3]: partial blocking

SMILES: CS(=O)(=O)c1ccc(-c2nc(F)cc(NCc3nccs3)n2)cc1 [[^18F]FMTP, [^18F]-6-fluoro-2-(4-(methylsulfonyl)phenyl)-N-(thiazol-2-ylmethyl)pyrimidin-4-amine]
IC50 [4]: 2.5 nM

increase of tracer binding in brain of LPS-treated compared with PBS-treated mice [6]: approximately 2 fold | washout of activity from brain ([7]; microPET, 0-40 minute): fast washout | BBB penetration ([7]; microPET, tail-vein injection): penetrated the BBB | time of peak uptake in heart and brain ([7]; time activity curves (FIG. 4)): around 1 minute | time of peak radioactivity in liver ([7]; time activity curves, delay ascribed to radioactive metabolite(s)): 5 to 10 min
SMILES: CS(=O)(=O)c1ccc(-c2nc([18F])cc(NCc3nccs3)n2)cc1 [[^18F]FMTP, [^18F]-6-fluoro-2-(4-(methylsulfonyl)phenyl)-N-(thiazol-2-ylmethyl)pyrimidin-4-amine]
binding to PANC1 cells ([5]; 2.0 μCi/mL, 30 minutes): negligible binding | specific binding in PANC1 cells with FMTP or celecoxib block ([5]; blockers 5 μM): no specific binding | uptake in spine and skeleton (de[18F]fluorination) ([7]; microPET): did not show uptake in spine and skeleton | uptake of [18F]FMTP in BxPC3 cells compared with PANC1 cells ([1]; 2.0 μCi/mL, 30 minutes, mean of four independent experiments (FIG. 2)): > 2 fold

SMILES: CS(=O)(=O)c1ccc(-c2cc(C(F)(F)F)nc(NCc3ccc([18F])cc3)n2)cc1 [[^18F]Pyricoxib]
binding in xenografts in vivo [8]: only modest binding | uptake in brain ([8]; in vivo): did not show significant uptake in brain

— patent US20220106275A1, “RADIOLABELED COMPOUNDS AND USES THEREOF” (The Trustees of Columbia University in the City of New York, priority 2019, published 2022)
